These results are taken from patent US3956279A, “Crystalline pivaloyloxymethyl d(-)-α-aminobenzylpenicillinate” (priority 1973, dated 1976).

The term solubility denotes how much of the substance goes into solution per volume.

≈ marks a conversion by molar mass, not a printed value. Structures can show the parent of a compound that is named as a salt. Where two headings read alike, the source gives them in different places. Some results are limits rather than exact numbers.

The conditions of series [1]: salts of pivampicillin, cited from earlier work.
Series [2] is described as follows: Density of crystalline pivampicillin compared with its salts. The series is classed as physicochemical. As to conditions: crystalline pivampicillin versus its salts.
On the set-up of series [3]: species or system healthy volunteers (adults). As to conditions: human, in vivo. How it is done: The above preparation was given to five healthy volunteers (adults), and as will appear from Table II below, gave rise to high serum concentrations and a high urinary recovery, as expressed below in terms of serum concentrations and urinary excretion, respectively.
SERUM CONCENTRATIONS (mcg per ml) AND URINARY EXCRETION
(in per cent of dose administered) OF AMPICILLIN IN FIVE
HEALTHY VOLUNTEERS (ADULTS) FOLLOWING ORAL ADMINISTRATION
OF 10 ml OF "PIVAMPICILLIN ORAL SUSPENSION" CONTAINING
PIVAMPICILLIN BASE CORRESPONDING TO 250 mg AMPICILLIN

Series [4] in a line: Stability of crystalline pivampicillin and of the preparation of Example 20 (chemical analyses). In kind it is physicochemical. As to conditions: crystalline pivampicillin in medical preparations. How it is done: Thus the preparation, the formulation of which is described in Example 20 of the present Specification, had according to chemical analyses a stability corresponding to a decrease in activity in the order of 5% over a 2 years period when stored at 20°C and a relative humidity of 40%.

A short description of series [5]: Solubilities at room temperature (about 25°C) in various solvents. The series is classed as physicochemical.
The conditions of series [6]: chemical substance pivampicillin, under certain conditions; cited from earlier work.

As to `CC(C)(C)C(=O)OCOC(=O)[C@@H]1N2C(=O)[C@@H](NC(=O)[C@H](N)c3ccccc3)[C@H]2SC1(C)C`, in series [1], the “Solubility of salt in water (in words)” value is given as “slightly soluble in water”.

As to `CC(C)(C)C(=O)OCOC(=O)[C@@H]1N2C(=O)[C@@H](NC(=O)[C@H](N)c3ccccc3)[C@H]2SC1(C)C` [pivampicillin, pivaloyloxymethyl D(-)-α-aminobenzylpenicillinate], the Density result in series [2] is “higher density than its salts”. The “Absorption (in words)” value in series [3] is “excellent absorption”. Also, the “Stability (in words)” value in series [4] is “stable compound”. Moreover, the “Solubility in water (in words)” value in series [5] (crystalline pivampicillin) is “extremely low solubility in water”. Further, in series [5] (methanol, room temperature (about 25°C)), the Stability in methanol result is “destruction”. In addition, the solubility in series [5] (organic solvent or mixture, acetonitrile, room temperature (about 25°C), read-out: Solubility in acetonitrile) was determined as 450000 µg/mL (≈ 971 mM); in series [5] (organic solvent or mixture, cyclohexane, room temperature (about 25°C), read-out: Solubility in cyclohexane), 150 µg/mL (≈ 0.324 mM); in series [5] (organic solvent or mixture, ethanol, room temperature (about 25°C), read-out: Solubility in ethanol) it was 40000 µg/mL (≈ 86.3 mM); in series [5] (organic solvent or mixture, ether, room temperature (about 25°C), read-out: Solubility in ether), 10000 µg/mL (≈ 21.6 mM); in series [5] (organic solvent or mixture, isopropanol, room temperature (about 25°C), read-out: Solubility in isopropanol) it was 12000 µg/mL (≈ 25.9 mM); in series [5] (organic solvent or mixture, isopropylether, room temperature (about 25°C), read-out: Solubility in isopropylether) it was 1000 µg/mL (≈ 2.16 mM). In addition, the solubility in series [5] (organic solvent or mixture, light petroleum (bp. 60-80°C), room temperature (about 25°C), read-out: Solubility in light petroleum) was 20 µg/mL (≈ 0.0431 mM); in series [5] (organic solvent or mixture, methanol, room temperature (about 25°C), (destruction), read-out: Solubility in methanol) it was above 500000 µg/mL; in series [5] (water, room temperature (about 25°C), read-out: Solubility in water), 100 µg/mL (≈ 0.216 mM). In series [6], the Tendency to polymerize result is on record as “apt to polymerize”.

Turning to `CC(C)(C)C(=O)OCOC(=O)[C@@H]1N2C(=O)[C@@H](NC(=O)[C@H](N)c3ccccc3)[C@H]2SC1(C)C` [hydrochloride, pivaloyloxymethyl D(-)-α-aminobenzylpenicillinate, hydrochloride], the “Solubility of salt in water (in words)” value in series [1] (hydrochloride) is reported as “readily soluble in water”.
